Experiment [1] addresses T1, NEP (Rattus norvegicus, UniProt P07861).
T1 sequence (P07861 1-750): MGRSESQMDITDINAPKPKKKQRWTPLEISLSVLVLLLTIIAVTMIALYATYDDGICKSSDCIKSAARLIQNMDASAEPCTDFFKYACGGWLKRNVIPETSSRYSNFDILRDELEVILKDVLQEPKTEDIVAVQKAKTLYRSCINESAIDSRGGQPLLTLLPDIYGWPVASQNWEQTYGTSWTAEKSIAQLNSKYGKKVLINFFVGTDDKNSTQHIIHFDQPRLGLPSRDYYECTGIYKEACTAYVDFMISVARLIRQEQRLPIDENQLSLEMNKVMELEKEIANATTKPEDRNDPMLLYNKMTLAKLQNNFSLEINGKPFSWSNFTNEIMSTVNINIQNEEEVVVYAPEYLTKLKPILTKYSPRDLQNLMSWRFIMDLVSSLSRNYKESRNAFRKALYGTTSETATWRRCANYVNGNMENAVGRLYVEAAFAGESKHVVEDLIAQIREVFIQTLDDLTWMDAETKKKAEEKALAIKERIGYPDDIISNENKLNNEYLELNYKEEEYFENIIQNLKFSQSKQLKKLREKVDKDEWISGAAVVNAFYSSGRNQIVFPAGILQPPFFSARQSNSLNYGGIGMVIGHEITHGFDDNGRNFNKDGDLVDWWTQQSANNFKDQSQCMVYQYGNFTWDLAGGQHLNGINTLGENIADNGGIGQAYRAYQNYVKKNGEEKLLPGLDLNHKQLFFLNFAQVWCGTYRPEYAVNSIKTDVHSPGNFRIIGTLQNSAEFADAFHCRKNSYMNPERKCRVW
The experiment in a line: NEP inhibition activity (Experiment F-1). The format is biochemical. Details: membrane fraction prepared from rat renal cortex; from tissue; host or cells: rat renal cortex, membrane fraction (method of Booth and Kenny). The following applies: rat renal cortex membrane fraction. The procedure: As a source of the enzyme NEP, a membrane fraction prepared from rat renal cortex in accordance with the method of Booth and Kenny (A Rapid Method for the Purification of Microvilli from Rabbit Kidney., Andrew G. Booth and A. John Kenny, Biochem. j., 1974, 142, 575-581.) was employed. The NEP activity was determined in accordance with the method of Orlowsky and Wilk (Purification and Specificity of a Membrane-Bound Metalloendpeptidase from Bovine Pituitaries., Marian Orlowsky and Shrwin Wilk, Biochemistry, 1981, 20, 4942-4950.). Now the procedure will be briefly described.
(§1) As a substrate, benzoyl-glycyl-arginyl-arginyl-2-naphthylamide (benzoyl-Gly-Arg-Arg-2-naphthylamide (Nova Biochem, Switzerland)) was used. In the presence of an NEP enzyme preparation and excessive leucine aminopeptidase (sigma chemical Co., U.S.A.), the liberated naphthylamine was made to undergo color development with first garnet (Sigma chemical Co., U.S.A.), followed by the measurement of the absorbance at a wavelength of 540 nm.
With respect to the NEP inhibition activity and the ACE inhibition activity, the inhibitor was added to the assay systems of both enzyme activities as described above in such a manner as to give the final concentrations of 1, 3, 10, 30, 100, 300 and 1000 inhibition curves were prepared, and then the concentration at which 50% inhibition was achieved was taken as IC50.

In experiment [2] the target is T1, NEP. The experiment is described as follows: NEP inhibition activity (Experiment C-1). The format is biochemical. As to conditions: Table C-1. The procedure:
The NEP activity was determined by the following manner in accordance with the method of Orlowsky and Wilk (Purification and Specificity of a Membrane-Bound Metalloendpeptidase from Bovine Pituitaries., Marian Orlowsky and Shrwin Wilk, Biochemistry, 1981, 20, 4942-4950.).
as §1
With respect to the NEP inhibition activity, the test compound was added to the experimental system as described above in such a manner as to give the final concentrations of 1, 3, 10, 30, 100, 300 and 1000 nM, an inhibition curve was prepared, and then the concentration at which 50% inhibition was achieved was taken as IC50. As a comparative compound, [4S-[4α,7α(R*),12bβ]]-7-[(1-oxo-2-(S)-thio-3-phenyl-propyl)amino]-1,2,3,4,6,7,8,12b-octahydro-6-oxopyrido-[2,1-a][2]benzazepine-4-carboxylic acid was used.

For the compound `O=C(N[C@H]1Cc2ccccc2[C@H]2CCC[C@@H](C(=O)O)N2C1=O)[C@@H](S)Cc1ccccc1` [Comp. cpd. E-1, [4S-[4α,7α(R*),12bβ]]-7-[(1-oxo-2-(S)-thio-3-phenyl-propyl)amino]-1,2,3,4,6,7,8,12b-octahydro-6-oxopyrido-[2,1-a][2]benzazepine-4-carboxylic acid, reference compound], the IC50 in experiment [1] stood at 13.5 nM; in experiment [2], 27 nM.
Take `CC[C@H](C)[C@H](S)C(=O)NC1CCc2ccccc2N(CC(=O)O)C1=O` (stereo partly drawn) [Example A-9, 1-Carboxymethyl-3-[(2S,3S)-2-mercapto-3-methylvarelylamino]-1H-[1]benzazepin-2-one]: the IC50 in experiment [2] was 12.5 nM.
Still for that read-out and setting: in the case of `CC[C@H](C)[C@H](S)C(=O)N[C@H]1CCc2ccccc2N(CC(=O)O)C1=O` [Example A-11, (S)-3-[(2S,3S)-2-Mercapto-3-methylvarelylamino]-1-carboxymethyl-2,3,4,5-tetrahydro-1H-[1]benzazepin-2-one] it was 6.2 nM.
As for `CC[C@H](C)[C@H](S)C(=O)N[C@H]1CCC[C@H]2SC[C@@H](C(=O)O)N2C1=O` [Example C-8, [3R-[3α,6α,(S*),9aβ]]-6-[[(2S,3S)-3-methyl-1-oxo-2-thiopentyl]amino]-octahydro-5-oxothiazol[3,2-a]-azepine-3-carboxylic acid], the IC50 in experiment [1] came out at 9.2 nM; in experiment [2], 13.4 nM.
The compound `CC[C@H](C)[C@H](S)C(=O)N[C@H]1Cc2ccc(-c3ccccc3)cc2[C@H]2CCC[C@@H](C(=O)O)N2C1=O` [Example C-14, [4S-[4α,7α(R*),12bβ]]-7-[[(2S,3S)-3-Methyl-1-oxo-2-thiopentyl]amino]-6-oxo-11-phenyl-1,2,3,4,6,7,8,12b-octahydropyrido[2,1-a][2]benzazepine-4-carboxylic acid] gave an IC50 in experiment [2] of 17.8 nM.
In the case of `O=C(N[C@H]1CCC[C@H]2SC[C@@H](C(=O)O)N2C1=O)[C@@H](S)Cc1ccccc1` [Example F-17, [3R-[3α,6α(S*),9aβ]]-6-[[(S)-1-Oxo-2-thio-3-phenylpropyl]amino]-octahydro-5-oxothiazol[3,2-a]-azepine-3-carboxylic acid], it took 11.1 nM to reach half-maximal inhibition in experiment [1] (IC50).

For orientation: IC50 means the midpoint of a concentration-inhibition curve.
